Experimental data: PubChem BioAssay (NCI)
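Where inhibition never reached the appropriate level, the endpoint shown equals the highest concentration tested. Otherwise, values were interpolated linearly from a five-concentration, 48-hour dose response in 96-well plates. At the TGI there is no net growth.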

What was measured:
Assay in all cases: inhibition of tumour cell growth, NCI panel, 48 h
DLD-1 colon = tested on: DLD-1 colon
DMS 273 small cell lung = tested on: DMS 273 small cell lung
HOP-18 NSCLC = tested on: HOP-18 NSCLC
KM20L2 colon = tested on: KM20L2 colon
LXFL 529 NSCLC = tested on: LXFL 529 NSCLC
M19-MEL melanoma = tested on: M19-MEL melanoma
RXF-631 renal = tested on: RXF-631 renal
XF 498 CNS = tested on: XF 498 CNS
MDA-N = tested on: MDA-N

**Q.** Which results are given for `CO/N=C/c1cc(OC)c(OC)c(OC)c1`?
**A.** TGI (DLD-1 colon): > 100 µM; TGI (DMS 273 small cell lung): > 100 µM; TGI (HOP-18 NSCLC): > 100 µM; TGI (KM20L2 colon): > 100 µM; TGI (LXFL 529 NSCLC): > 100 µM; TGI (M19-MEL melanoma): > 100 µM; TGI (RXF-631 renal): > 100 µM; TGI (XF 498 CNS): > 100 µM

**Q.** Which TGI (DLD-1 colon) does the source give for `CCCN=C(N)NC#N` here?
**A.** The TGI was greater than 100 µM.

**Q.** And the TGI (DMS 273 small cell lung)?
**A.** The TGI was greater than 100 µM.

**Q.** What about the TGI (HOP-18 NSCLC) of the same compound?
**A.** The TGI was greater than 100 µM.

**Q.** And the TGI (KM20L2 colon)?
**A.** Its TGI is greater than 100 µM.

**Q.** And the TGI (LXFL 529 NSCLC)?
**A.** Its TGI is greater than 100 µM.

**Q.** What about the TGI (M19-MEL melanoma) of the same compound?
**A.** Its TGI is greater than 100 µM.

**Q.** With `O=C(O)C1C2C=CC(O2)C1C(=O)NCc1ccccn1` (configuration not stated) as the compound, how does the TGI (MDA-N) read?
**A.** Its TGI is greater than 100 µM.

**Q.** With `CC1(C)COC(c2cccnc2/C=N/O)=N1` as the compound, how does the TGI (DLD-1 colon) read?
**A.** The TGI was greater than 100 µM.

**Q.** What about the TGI (DMS 273 small cell lung) of the same compound?
**A.** Its TGI is greater than 100 µM.

**Q.** What about the TGI (HOP-18 NSCLC) of the same compound?
**A.** The TGI was greater than 100 µM.

**Q.** And the TGI (KM20L2 colon)?
**A.** The TGI was greater than 100 µM.

**Q.** What about the TGI (LXFL 529 NSCLC) of the same compound?
**A.** The TGI was greater than 100 µM.

**Q.** And the TGI (M19-MEL melanoma)?
**A.** The TGI was greater than 100 µM.

**Q.** What about the TGI (RXF-631 renal) of the same compound?
**A.** Its TGI is greater than 100 µM.

**Q.** What about the TGI (XF 498 CNS) of the same compound?
**A.** The TGI was greater than 100 µM.

**Q.** With `CCOc1ccccc1C=C1c2ccccc2C(=O)c2ccccc21` as the compound, how does the TGI (DLD-1 colon) read?
**A.** Its TGI is greater than 100 µM.

**Q.** And the TGI (DMS 273 small cell lung)?
**A.** Its TGI is 15.7 µM.

**Q.** What about the TGI (LXFL 529 NSCLC) of the same compound?
**A.** The TGI was greater than 100 µM.

**Q.** And the TGI (M19-MEL melanoma)?
**A.** The TGI was greater than 100 µM.

**Q.** For `C=C1C(=O)OC2CCN3CC=C(COC(=O)C(C)(O)C4(CO4)C1C)C23` (configuration not stated), which TGI (MDA-N) is on record?
**A.** Its TGI is greater than 100 µM.

**Q.** How did the TGI (DLD-1 colon) turn out when `CC(CCC=O)CCOCc1ccccc1` (configuration not stated) was run?
**A.** Its TGI is greater than 100 µM.

**Q.** And the TGI (DMS 273 small cell lung)?
**A.** Its TGI is greater than 100 µM.

**Q.** And the TGI (HOP-18 NSCLC)?
**A.** The TGI was greater than 100 µM.

**Q.** And the TGI (KM20L2 colon)?
**A.** The TGI was greater than 100 µM.

**Q.** And the TGI (LXFL 529 NSCLC)?
**A.** Its TGI is greater than 100 µM.

**Q.** What about the TGI (M19-MEL melanoma) of the same compound?
**A.** The TGI was greater than 100 µM.

**Q.** And the TGI (MDA-N)?
**A.** Its TGI is greater than 100 µM.

**Q.** What about the TGI (XF 498 CNS) of the same compound?
**A.** The TGI was greater than 100 µM.

**Q.** How did the TGI (DLD-1 colon) turn out when `N#CC(N)(C(=O)CCC(=O)Nc1cccc(Cl)c1)c1ccc(Cl)cc1` (configuration not stated) was run?
**A.** Its TGI is greater than 100 µM.

**Q.** What about the TGI (DMS 273 small cell lung) of the same compound?
**A.** Its TGI is greater than 100 µM.

**Q.** And the TGI (HOP-18 NSCLC)?
**A.** The TGI was greater than 100 µM.

**Q.** And the TGI (KM20L2 colon)?
**A.** Its TGI is greater than 100 µM.

**Q.** What about the TGI (LXFL 529 NSCLC) of the same compound?
**A.** The TGI was greater than 100 µM.

**Q.** What about the TGI (M19-MEL melanoma) of the same compound?
**A.** Its TGI is greater than 100 µM.

**Q.** And the TGI (XF 498 CNS)?
**A.** The TGI was greater than 100 µM.

**Q.** With `Cc1ccc(NC(=O)C(=O)C(C(=O)c2ccc3ccccc3c2)C2OC(=O)c3ccccc32)cc1C` (configuration not stated) as the compound, how does the TGI (DLD-1 colon) read?
**A.** The TGI was 36.7 µM.

**Q.** And the TGI (DMS 273 small cell lung)?
**A.** The TGI was 30.3 µM.

**Q.** And the TGI (HOP-18 NSCLC)?
**A.** The TGI was 21.7 µM.

**Q.** And the TGI (KM20L2 colon)?
**A.** Its TGI is greater than 100 µM.

**Q.** And the TGI (LXFL 529 NSCLC)?
**A.** The TGI was 22 µM.

**Q.** What about the TGI (M19-MEL melanoma) of the same compound?
**A.** The TGI was 20.6 µM.

**Q.** What about the TGI (XF 498 CNS) of the same compound?
**A.** Its TGI is 18.2 µM.

**Q.** `NC(=O)NC1C(c2ccccc2)=C1c1ccccc1` was tested. Which TGI (MDA-N) did it give?
**A.** Its TGI is 34.4 µM.

**Q.** What does the source list for `CN(C)c1nc2ccccc2[nH]1`?
**A.** TGI (DLD-1 colon): > 100 µM; TGI (DMS 273 small cell lung): > 100 µM; TGI (HOP-18 NSCLC): > 100 µM; TGI (KM20L2 colon): > 100 µM; TGI (LXFL 529 NSCLC): > 100 µM; TGI (M19-MEL melanoma): > 100 µM

**Q.** For `NC(=Nc1c([N+](=O)[O-])cnc2ccccc12)N1CCOCC1`, which TGI (MDA-N) is on record?
**A.** Its TGI is greater than 100 µM.

**Q.** With `CS(=O)(=O)Nc1ccc2c(c1)oc(=O)c1ccccc12` as the compound, how does the TGI (MDA-N) read?
**A.** The TGI was greater than 100 µM.

**Q.** How did the TGI (MDA-N) turn out when `COc1cc(C#CC(=O)OC/C=C/c2ccc3c(c2)OCO3)cc(OC)c1OC` was run?
**A.** The TGI was 45 µM.

**Q.** How did the TGI (DLD-1 colon) turn out when `O=C(CCn1[nH]c(=O)c(Cl)c(Cl)c1=O)NO` was run?
**A.** Its TGI is greater than 100 µM.

**Q.** And the TGI (DMS 273 small cell lung)?
**A.** The TGI was greater than 100 µM.

**Q.** What about the TGI (HOP-18 NSCLC) of the same compound?
**A.** Its TGI is greater than 100 µM.

**Q.** What about the TGI (KM20L2 colon) of the same compound?
**A.** Its TGI is greater than 100 µM.

**Q.** And the TGI (LXFL 529 NSCLC)?
**A.** Its TGI is greater than 100 µM.

**Q.** What about the TGI (M19-MEL melanoma) of the same compound?
**A.** Its TGI is greater than 100 µM.

**Q.** What about the TGI (XF 498 CNS) of the same compound?
**A.** Its TGI is greater than 100 µM.
